For six compounds, Ki results are on record in US20120295845A1, “IMIDAZO-PYRAZOLES AS GPR119 INHIBITORS” (Pfizer Inc, priority 2009, published 2012).

“And” between values parts separate entries of the source, which are not always exact repeats. Identical values can stand only once.

The assay concerns the target T1, human GPR119 (Homo sapiens, UniProt Q8TDV5).
T1 construct: host or cells: HEK293-CRE beta-lactamase cells
T1 sequence (Q8TDV5 1-335): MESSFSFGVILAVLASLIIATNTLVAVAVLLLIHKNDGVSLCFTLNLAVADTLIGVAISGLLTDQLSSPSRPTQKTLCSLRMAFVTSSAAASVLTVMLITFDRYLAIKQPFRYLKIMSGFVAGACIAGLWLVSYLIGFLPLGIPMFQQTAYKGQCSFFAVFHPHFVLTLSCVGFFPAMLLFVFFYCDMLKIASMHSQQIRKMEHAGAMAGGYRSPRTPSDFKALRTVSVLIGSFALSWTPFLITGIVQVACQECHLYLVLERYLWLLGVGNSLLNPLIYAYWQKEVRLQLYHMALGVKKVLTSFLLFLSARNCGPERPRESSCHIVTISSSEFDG
Kind of assay: GPR119 radioligand binding assay ([3H]-Compound A or [3H]-Compound B, membranes of HEK 293FT cells expressing hGPR119). The note with it: Ki calculated from IC50 by the Cheng-Prusoff equation; one value per run. The protocol:
HEK 293FT cells (Invitrogen, Carlsbad, Calif.) were grown in a shake flask in 293Freestyle medium (Invitrogen) supplemented with 50 microg/mL neomycin and 10 mM HEPES (37C, 8% carbon dioxide, shaking). The cells were centrifuged gently (approximately 500×g, 10 minutes) and the pellet resuspended in a mixture of Dulbecco's PBS (minus Mg++/Ca++) supplemented with 18% fetal bovine serum (Sigma Aldrich) and P1 virus such that the multiplicity of infection (MOI) was 10 and the final cell density was 1.3×10^6/mL (total volume 2.5 liters). The cells were transferred to a 5 liter Wave Bioreactor Wavebag (Wave Technologies, Mass.) and incubated for 4 hours at 27 degrees Celsius (17 rocks/min, 7 degrees platform angle); at the end of the incubation period, an equal volume (2.5 liters) of 293Freestyle medium supplemented with 30 mM sodium butyrate (Sigma Aldrich) was added (final concentration=15 mM), and the cells were grown for 20 hours (37 degrees Celsius, 8% CO2 [0.2 liters/min}, 25 rocks/minute, 7 degrees platform angle). Cells were harvested via centrifugation (3,000×g, 10 minutes), washed once on DPBS (minus Ca++/Mg++), resuspended in 0.25M sucrose, 25 mM HEPES, 0.5 mM EDTA, pH 7.4 and frozen at −80 degrees Celsius.
The frozen cells were thawed on ice and centrifuged at 700×g (1400 rpm) for 10 minutes at 4 degrees Celsius. The cell pellet was resuspended in 20 mL phosphate-buffered saline, and centrifuged at 1400 rpm for 10 minutes. The cell pellet was then resuspended in homogenization buffer (10 mM HEPES (Gibco #15630), pH 7.5, 1 mM EDTA (BioSolutions, #BIO260-15), 1 mM EGTA (Sigma, #E-4378), 0.01 mg/mL benzamidine (Sigma #B 6506), 0.01 mg/mL bacitracin (Sigma #B 0125), 0.005 mg/mL leupeptin (Sigma #L 8511), 0.005 mg/mL aprotinin (Sigma #A 1153)) and incubated on ice for 10 minutes. Cells were then lysed with 15 gentle strokes of a tight-fitting glass Dounce homogenizer. The homogenate was centrifuged at 1000×g (2200 rpm) for 10 minutes at 4 degrees Celsius. The supernatant was transferred into fresh centrifuge tubes on ice. The cell pellet was resuspended in homogenization buffer, and centrifuged again at 1000×g (2200 rpm) for 10 minutes at 4 degrees Celsius after which the supernatant was removed and the pellet resuspended in homogenization buffer. This process was repeated a third time, after which the supernatants were combined, Benzonase (Novagen # 71206) and MgC12 (Fluka #63020) were added to final concentrations of 1 U/mL and 6 mM, respectively, and incubated on ice for one hour. The solution was then centrifuged at 25,000×g (15000 rpm) for 20 minutes at 4 degrees Celsius, the supernatant was discarded, and the pellet was resuspended in fresh homogenization buffer (minus Benzonase and MgCl2). After repeating the 25,000×g centrifugation step, the final membrane pellet was resuspended in homogenization buffer and frozen at −80 degrees Celsius. The protein concentration was determined using the Pierce BCA protein assay kit (Pierce reagents A #23223 and B #23224).
Test compounds were serially diluted in 100% DMSO (J. T. Baker #922401). 2 microL of each dilution was added to appropriate wells of a 96-well plate (each concentration in triplicate). Unlabeled Compound A (or Compound B), at a final concentration of 10 microM, was used to determine non-specific binding. [^3H]-Compound A (or [^3H]-Compound B) was diluted in binding buffer (50 mM Tris-HCl, pH 7.5, (Sigma #T7443), 10 mM MgCl2 (Fluka 63020), 1 mM EDTA (BioSolutions #BIO260-15), 0.15% bovine serum albumin (Sigma #A7511), 0.01 mg/mL benzamidine (Sigma #B 6506), 0.01 mg/mL bacitracin (Sigma #B 0125), 0.005 mg/mL leupeptin (Sigma #L 8511), 0.005 mg/mL aprotinin (Sigma #A 1153)) to a concentration of 60 nM, and 100 microL added to all wells of 96-well plate (Nalge Nunc # 267245). Membranes expressing GPR119 were thawed and diluted to a final concentration of 20 μg/100 microL per well in Binding Buffer, and 100 microL of diluted membranes were added to each well of 96-well plate. […]

In general, Ki refers to the dissociation constant of the complex between target and ligand, obtained from inhibition or displacement. Regarding `Cc1c(O[C@H]2CCN(C(=O)OC(C)C)C[C@H]2F)ncnc1N1CCn2nccc21` (racemic) [Example 4, Isopropyl (3R,4S)-4-{[6-(2,3-dihydro-1H-imidazo[1,2-b]pyrazol-1-yl)-5-methylpyrimidin-4-yl]oxy}-3-fluoropiperidine-1-carboxylate (racemic)], the Ki is 140 nM. As for `Cc1c(O[C@H]2CCN(C(=O)OC3(C)CC3)C[C@H]2F)ncnc1N1CCn2nccc21` (racemic) [Example 3, 1-Methylcyclopropyl (3R,4S)-4-{[6-(2,3-dihydro-1H-imidazo[1,2-b]pyrazol-1-yl)-5-methylpyrimidin-4-yl]oxy}-3-fluoropiperidine-1-carboxylate (racemic)], the Ki was 74 nM and 83 nM and 85 nM and 97 nM and 71 nM and 34 nM and 50 nM. The figure for `Cc1c(OC2CCN(C(=O)OC3(C)CC3)CC2)ncnc1N1CCn2nccc21` [Example 2, 1-Methylcyclopropyl 4-{[6-(2,3-dihydro-1H-imidazo[1,2-b]pyrazol-1-yl)-5-methylpyrimidin-4-yl]oxy}piperidine-1-carboxylate] is 305 nM; for `Cc1c(O[C@H]2CCN(C(=O)OC3(C)CC3)C[C@H]2F)ncnc1N1CCn2nccc21` (single isomer, unassigned) [Example 6] it is 69 nM and 295 nM and 186 nM and 133 nM and 101 nM and 67 nM and 80 nM. With `Cc1c(OC2CCN(C(=O)OC(C)C)CC2)ncnc1N1CCn2nccc21` [Example 1, Isopropyl 4-{[6-(2,3-dihydro-1H-imidazo[1,2-b]pyrazol-1-yl)-5-methylpyrimidin-4-yl]oxy}piperidine-1-carboxylate], the Ki was 514 nM and 442 nM and 446 nM and 524 nM. For the compound `Cc1c(O[C@@H]2CCN(C(=O)OC3(C)CC3)C[C@@H]2F)ncnc1N1CCn2nccc21` (single isomer, unassigned) [Example 5], the Ki is 57 nM and 38 nM and 50 nM and 64 nM and 44 nM and 13 nM and 42 nM and 104 nM and 46 nM.
